# Read-outs that look alike come from different tables or passages of the source.
# How the values were obtained:
# [1] = target: bovine serum albumin (BSA) (Bos taurus, UniProt P02769); assay: Fluorescence quenching of BSA by ligand (binary and ternary systems; Stern Volmer, double log and van't Hoff analysis); assay type: binding
# From the text: The spectrofluorometer FP-8200 (JASCO, Hachioji, Tokyo, Japan) was used to measure the fluorescence spectra. […] The inner filter effects were corrected for the reabsorption of emitted light using the equation [35]: Fcor=Fobs×e^(Aex+Aem)/2
# Fcor and Fobs are the corrected and observed fluorescence in the above equation, respectively, and Aex and Aem are excitation and emission wavelengths absorbance values, respectively.
# The fluorescence spectra for the protein BSA for the binary and the ternary system were recorded at 280 nm (excitation wavelength) and an emission wavelength of 300–500 nm (Figure 1a–c). […] (1) kq=Ksv/τ0 where F0 is BSA’s fluorescence intensity, and F is BSA’s fluorescence intensity in the presence of quencher. Stern Volmer constant is given as Ksv, and (Q) is quencher concentration. The kq biomolecular quenching constant and τ0 the lifetime of the fluorophore in the absence of quencher and is valued at 10^−8 s for biopolymers.
# The binding constants and binding stoichiometry are were determined using a double logarithmic regression plot derived from the equation: log(F0−F)/F=log Kb+n log[Q] .
# [2] = target: T1, BSA Site I / Site II (Bos taurus, UniProt P02769); design: method as in PMID 28513070, PMID 34946608; conditions: cited from earlier work
# T1 construct: purchased Sigma-Aldrich (St. Louis, MO, USA)
# T1 sequence (P02769 25-607): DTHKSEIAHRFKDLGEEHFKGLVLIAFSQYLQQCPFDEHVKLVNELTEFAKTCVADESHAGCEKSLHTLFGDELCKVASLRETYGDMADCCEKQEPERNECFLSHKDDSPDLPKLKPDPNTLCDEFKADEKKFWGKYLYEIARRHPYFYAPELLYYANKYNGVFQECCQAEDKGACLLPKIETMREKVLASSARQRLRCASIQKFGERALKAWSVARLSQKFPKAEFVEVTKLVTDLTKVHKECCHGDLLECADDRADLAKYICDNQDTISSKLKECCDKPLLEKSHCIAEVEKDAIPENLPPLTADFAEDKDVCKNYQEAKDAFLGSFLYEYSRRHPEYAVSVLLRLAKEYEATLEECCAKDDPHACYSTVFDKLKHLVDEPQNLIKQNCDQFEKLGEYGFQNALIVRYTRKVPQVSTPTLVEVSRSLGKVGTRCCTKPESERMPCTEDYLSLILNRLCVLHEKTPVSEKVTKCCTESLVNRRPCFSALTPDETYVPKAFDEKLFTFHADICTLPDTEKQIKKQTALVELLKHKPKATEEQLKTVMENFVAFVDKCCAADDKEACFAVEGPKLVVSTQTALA
# [3] = target: T1, BSA Site I / Site II; assay: Site marker studies with phenylbutazone (Site I) and ibuprofen (Site II); assay type: binding, bovine
# [4] = tested on: serum proteins; conditions: humans; cited from earlier work
# [5] = tested on: serum proteins; conditions: mice; cited from earlier work
# [6] = tested on: serum proteins; conditions: rats; cited from earlier work
# Sequence of bovine serum albumin (BSA) (P02769 25-607): as above
Compound,"bimolecular quenching constant kq ([1]; binary system, 298 K, kq = Ksv/τ0, τ0 10^−8 s)","Stern Volmer constant Ksv ± SD ([1]; binary system, BSA 1.5 μM, 298 K)",further reduction of fluorescence intensity of the BSA-ERL system by presence of QUR ([1]; difference ternary vs binary system) [%],binding site on BSA [2],influence of phenylbutazone on quenching behavior and binding constant of BSA-ERL ([3]; Site I marker phenylbutazone),binding constants of BSA-ERL in the presence and absence of ibuprofen ([3]; Site II marker ibuprofen),binding site on BSA ([3]; site markers phenylbutazone and ibuprofen),binding to serum proteins [4] [%],binding to serum proteins [5] [%],binding to serum proteins [6] [%]
"O=c1c(O)c(-c2ccc(O)c(O)c2)oc2cc(O)cc(O)c12 [QUR, Quercetin]",46.07 × 10^12 M^−1S^−1,"460,702 ± 1875 M^−1",26,Site I,,,,,,
"C#Cc1cccc(Nc2ncnc3cc(OCCOC)c(OCCOC)cc23)c1 [ERL, Erlotinib]",,,,,strongly influenced,similar,Site I,92,95,92

# — paper PMC8874853 (Molecules, 2022)
